Source: US7189351B2, “D-tagatose as an anti-biofilm agent” (priority 2001, dated 2007)

Tests used:
[1] = tested on: Prevotella loescheii PK1295/Streptococcus mitis J22; assay: reversal of coaggregation, visual score; type: cell-based; parameters: key to coaggregation score without sugar: *: Coaggregations were reversed by both D-galactose and D-tagatose; details: for coaggregation score without sugar: pair J22/PK1295, coaggregation score 3 without sugar; for coaggregation score: pair PK1295/J22, water score 4, scale 0 no visible to 4 maximum coaggregation
Protocol: (§1) Fifteen oral isolates, including both early colonizers (Streptococcus and Actinomyces) and late colonizers (Fusobacterium, Porphyromonas, Prevotella, Veillonella, Capnocytophaga, and Actinobacillus), were tested for their ability to coaggregate with each other, followed by testing for the reversal of coaggregation by the addition of D-tagatose. Bacterial strains used were of human gingival crevice origin. The coaggregation was examined visually by a scoring system ranging from 0 for no visible coaggregation to 4 for maximum coaggregation [Cisar J. O., Kolenbrander P. E., and McIntire F. C., “Specificity of coaggregation reactions between human oral streptococci and strains of Actinomyces viscosus or Actinomyces naeslundii”, Infect. Immun., 24:742–752. 1979]. D-Tagatose, at a concentration of less than 750 mM, completely reversed the coaggregation of 17 (60%) of 28 strong coaggregating pairs (with a coaggregation score of 2 or higher) tested. […] These D-tagatose sensitive coaggregations were D-galactose reversible as well.
(§2) Pairs of various species of oral bacteria were tested for coaggregation, and for reversal of coaggregation when D-tagatose or D-galactose was administered.

[2] = tested on: Streptococcus morbillorum PK509/Streptococcus oralis SO34; assay: reversal of coaggregation, visual score; type: cell-based; parameters: key to coaggregation score without sugar: *: Coaggregations were reversed by both D-galactose and D-tagatose; details: for coaggregation score: pair PK509/SO34, water score 2, scale 0 no visible to 4 maximum coaggregation; for coaggregation score without sugar: pair SO34/PK509, coaggregation score 2 without sugar
Protocol: as §1, §2

[3] = tested on: Streptococcus morbillorum PK509/Prevotella loescheii PK1295; assay: reversal of coaggregation, visual score; type: cell-based; parameters: key to coaggregation score without sugar: *: Coaggregations were reversed by both D-galactose and D-tagatose; details: pair PK509/PK1295; for coaggregation score without sugar: coaggregation score 2 without sugar; for coaggregation score: water score 2, scale 0 no visible to 4 maximum coaggregation
Protocol: as §1, §2

[4] = tested on: Actinomyces naeslundii PK29/Streptococcus oralis SO34; assay: reversal of coaggregation, visual score; type: cell-based; parameters: key to coaggregation score without sugar: *: Coaggregations were reversed by both D-galactose and D-tagatose; details: for coaggregation score: pair PK29/SO34, water score 4, scale 0 no visible to 4 maximum coaggregation; for coaggregation score without sugar: pair SO34/PK29, coaggregation score 4 without sugar
Protocol: as §1, §2

[5] = tested on: Streptococcus morbillorum PK509/Streptococcus oralis C104; assay: reversal of coaggregation, visual score; type: cell-based; parameters: key to coaggregation score without sugar: *: Coaggregations were reversed by both D-galactose and D-tagatose; details: for coaggregation score without sugar: pair Cl04/PK509, coaggregation score 3 without sugar; for coaggregation score: pair PK509/C104, water score 3, scale 0 no visible to 4 maximum coaggregation
Protocol: as §1, §2

[6] = tested on: Fusobacterium nucleatum PK1594/Actinobacillus actinomycetemcomitans JP2; assay: reversal of coaggregation, visual score; type: cell-based; parameters: key to coaggregation score without sugar: *: Coaggregations were reversed by both D-galactose and D-tagatose; details: pair PK1594/JP2; for coaggregation score without sugar: coaggregation score 3 without sugar; for coaggregation score: water score 3, scale 0 no visible to 4 maximum coaggregation
Protocol: as §1, §2

[7] = tested on: Fusobacterium nucleatum PK1594/Veillonella atypica PK1910; assay: reversal of coaggregation, visual score; type: cell-based; parameters: key to coaggregation score without sugar: *: Coaggregations were reversed by both D-galactose and D-tagatose; details: pair PK1594/PK1910; for coaggregation score without sugar: coaggregation score 3 without sugar; for coaggregation score: water score 3, scale 0 no visible to 4 maximum coaggregation
Protocol: as §1, §2

[8] = tested on: Actinomyces naeslundii PK29/Streptococcus oralis C104; assay: reversal of coaggregation, visual score; type: cell-based; parameters: key to coaggregation score without sugar: *: Coaggregations were reversed by both D-galactose and D-tagatose; details: for coaggregation score without sugar: pair Cl04/PK29, coaggregation score 4 without sugar; for coaggregation score: pair PK29/C104, water score 4, scale 0 no visible to 4 maximum coaggregation
Protocol: as §1, §2

[9] = tested on: Veillonella atypica PK1910/Streptococcus oralis C104; assay: reversal of coaggregation, visual score; type: cell-based; parameters: key to coaggregation score without sugar: *: Coaggregations were reversed by both D-galactose and D-tagatose; details: for coaggregation score without sugar: pair Cl04/PK1910, coaggregation score 3 without sugar; for coaggregation score: pair PK1910/C104, water score 3, scale 0 no visible to 4 maximum coaggregation
Protocol: as §1, §2

[10] = tested on: Prevotella loescheii PK1295/Streptococcus oralis SO34; assay: reversal of coaggregation, visual score; type: cell-based; parameters: key: *: Coaggregations were reversed by both D-galactose and D-tagatose
Protocol: as §1, §2

[11] = tested on: Fusobacterium nucleatum PK1594/Capnocytophaga ochracea 25; assay: reversal of coaggregation, visual score; type: cell-based; parameters: key: *: Coaggregations were reversed by both D-galactose and D-tagatose; details: pair PK1594/Capno 25; coaggregation score 1 without sugar
Protocol: as §1, §2

[12] = tested on: Prevotella loescheii PK1295/Streptococcus oralis C104; assay: reversal of coaggregation, visual score; type: cell-based; parameters: key: *: Coaggregations were reversed by both D-galactose and D-tagatose
Protocol: as §1, §2

[13] = tested on: Actinomyces naeslundii PK947/Streptococcus oralis C104; assay: reversal of coaggregation, visual score; type: cell-based; parameters: key to reversal of coaggregation: *: Coaggregations were reversed by both D-galactose and D-tagatose; details: for reversal of coaggregation: pair Cl04/PK947, coaggregation score 2 without sugar; for coaggregation score: pair PK947/C104, water score 2, scale 0 no visible to 4 maximum coaggregation
Protocol: as §1, §2

[14] = tested on: Actinomyces naeslundii PK947/Streptococcus oralis SO34; assay: reversal of coaggregation, visual score; type: cell-based; parameters: key to reversal of coaggregation: *: Coaggregations were reversed by both D-galactose and D-tagatose; details: for coaggregation score: pair PK947/SO34, water score 3, scale 0 no visible to 4 maximum coaggregation; for reversal of coaggregation: pair SO34/PK947, coaggregation score 3 without sugar
Protocol: as §1, §2

[15] = tested on: Actinomyces naeslundii PK29/Streptococcus mitis J22; assay: reversal of coaggregation, visual score; type: cell-based; parameters: key to reversal of coaggregation: *: Coaggregations were reversed by both D-galactose and D-tagatose; details: for reversal of coaggregation: pair J22/PK29, coaggregation score 4 without sugar; for coaggregation score: pair PK29/J22, water score 4, scale 0 no visible to 4 maximum coaggregation
Protocol: as §1, §2

[16] = tested on: Actinomyces naeslundii PK947/Streptococcus mitis J22; assay: reversal of coaggregation, visual score; type: cell-based; parameters: key to reversal of coaggregation: *: Coaggregations were reversed by both D-galactose and D-tagatose; details: for reversal of coaggregation: pair J22/PK947, coaggregation score 2 without sugar; for coaggregation score: pair PK947/J22, water score 2, scale 0 no visible to 4 maximum coaggregation
Protocol: as §1, §2

[17] = tested on: Actinomyces naeslundii PK29/Streptococcus morbillorum PK509; assay: reversal of coaggregation, visual score; type: cell-based; parameters: key to reversal of coaggregation: *: Coaggregations were reversed by both D-galactose and D-tagatose; details: for coaggregation score: pair PK29/PK509, water score 2, scale 0 no visible to 4 maximum coaggregation; for reversal of coaggregation: pair PK509/PK29, coaggregation score 2 without sugar
Protocol: as §1, §2

[18] = tested on: coaggregating pairs of oral isolates (early and late colonizers); assay: reversal of coaggregation among fifteen oral isolates (overall); type: cell-based, bacterial strains of human gingival crevice origin
Protocol: as §1, §2

[19] = tested on: F. nucleatum PK1594 and P. gingivalis PK1924; assay: phase-contrast photomicrographs of coaggregation; type: cell-based, Fusobacterium nucleatum; Porphyromonas gingivalis
[20] = pair SO34/PK1295, coaggregation score 4 without sugar
[21] = pair Cl04/PK1295, coaggregation score 4 without sugar

O=C(CO)[C@@H](O)[C@@H](O)[C@H](O)CO [D-Tagatose]
coaggregation score without sugar [1]: 3*
coaggregation score ([1]; sugar 750 mM): 2
coaggregation score ([2]; sugar 400 mM): 1
coaggregation score without sugar [2]: 2*
coaggregation score without sugar [3]: 2*
coaggregation score ([3]; sugar 600 mM): 0
coaggregation score ([4]; sugar 750 mM): 1
coaggregation score without sugar [4]: 4*
coaggregation score without sugar [5]: 3*
coaggregation score ([5]; sugar 750 mM): 1
coaggregation score without sugar [6]: 3*
coaggregation score ([6]; sugar 600 mM): 0
coaggregation score without sugar [7]: 3*
coaggregation score ([7]; sugar 200 mM): 0
coaggregation score without sugar [8]: 4*
coaggregation score ([8]; sugar 750 mM): 1
coaggregation score without sugar [9]: 3*
coaggregation score ([9]; sugar 200 mM): 1
coaggregation score ([10]; pair PK1295/SO34, sugar 750 mM, water score 4, scale 0 no visible to 4 maximum coaggregation): 1
coaggregation score [10, 20]: 4*
coaggregation score without sugar [11]: 1*
coaggregation score [12, 21]: 4*
coaggregation score ([12]; pair PK1295/C104, sugar 750 mM, water score 4, scale 0 no visible to 4 maximum coaggregation): 2
reversal of coaggregation [13]: 2*
coaggregation score ([13]; sugar 200 mM): 0
coaggregation score ([14]; sugar 200 mM): 0
reversal of coaggregation [14]: 3*
reversal of coaggregation [15]: 4*
coaggregation score ([15]; sugar 750 mM): 1
reversal of coaggregation [16]: 2*
coaggregation score ([16]; sugar 200 mM): 0
coaggregation score ([17]; sugar 200 mM): 0
reversal of coaggregation [17]: 2*
plaque reversibility, comparison of Table 2 ([18]; D-tagatose and D-sorbitol at somewhat higher concentrations than D-galactose): virtually equal to that of D-galactose
share of strong coaggregating pairs whose coaggregation was completely reversed ([18]; concentration of less than 750 mM, 28 strong coaggregating pairs tested): 60%
number of strong coaggregating pairs whose coaggregation was completely reversed ([18]; concentration of less than 750 mM, of 28 strong coaggregating pairs (score of 2 or higher) tested): 17
colonizers acted on ([18]; late colonizers were gram-negative anaerobes): acted on both early colonizers and late colonizers
dissociation of coaggregate clumps ([19]; 400 mM final concentration): dissociates the clumps into individual cells

O=C[C@H](O)[C@@H](O)[C@@H](O)[C@H](O)CO [D-Galactose]
coaggregation score without sugar [1]: 3*
coaggregation score ([1]; sugar 143 mM): 0
coaggregation score ([2]; sugar 143 mM): 0
coaggregation score without sugar [2]: 2*
coaggregation score without sugar [3]: 2*
coaggregation score ([3]; sugar 143 mM): 0
coaggregation score ([4]; sugar 143 mM): 1
coaggregation score without sugar [4]: 4*
coaggregation score without sugar [5]: 3*
coaggregation score ([5]; sugar 143 mM): 0
coaggregation score without sugar [6]: 3*
coaggregation score ([6]; sugar 143 mM): 1
coaggregation score without sugar [7]: 3*
coaggregation score ([7]; sugar 143 mM): 0
coaggregation score without sugar [8]: 4*
coaggregation score ([8]; sugar 143 mM): 1
coaggregation score without sugar [9]: 3*
coaggregation score ([9]; sugar 143 mM): 0
coaggregation score ([10]; pair PK1295/SO34, sugar 143 mM, water score 4, scale 0 no visible to 4 maximum coaggregation): 0
coaggregation score [10, 20]: 4*
coaggregation score without sugar [11]: 1*
coaggregation score [12, 21]: 4*
coaggregation score ([12]; pair PK1295/C104, sugar 143 mM, water score 4, scale 0 no visible to 4 maximum coaggregation): 1
reversal of coaggregation [13]: 2*
coaggregation score ([13]; sugar 143 mM): 0
coaggregation score ([14]; sugar 143 mM): 0
reversal of coaggregation [14]: 3*
reversal of coaggregation [15]: 4*
coaggregation score ([15]; sugar 143 mM): 1
reversal of coaggregation [16]: 2*
coaggregation score ([16]; sugar 143 mM): 0
coaggregation score ([17]; sugar 143 mM): 0
reversal of coaggregation [17]: 2*
reversibility of the D-tagatose sensitive coaggregations [18]: reversible
dissociation of coaggregate clumps ([19]; 143 mM final concentration): dissociates clumps into individual cells
